Values quoted from earlier work, collected in patent publication US20240397942A1, “METHOD FOR PRODUCING REPELLENT OR ATTRACTANT FOR ORGANISMS, REPELLENT OR ATTRACTANT FOR ORGANISMS, AND METHOD FOR REPELLING OR ATTRACTING ORGANISMS” (Sony Group Corporation, priority 2021, published 2024).

Legend:
Conditions in all cases: in vivo
fruit flies = test system: fruit flies
green tea leafhoppers = test system: green tea leafhoppers
Asian tiger mosquitoes = test system: Asian tiger mosquitoes
sirex woodwasps = test system: sirex woodwasps
malaria mosquitoes = test system: malaria mosquitoes
Mexican bean beetles = test system: Mexican bean beetles
flour beetles = test system: flour beetles
spider mites = test system: spider mites
[1] = test system: whiteflies (infection vector of tomato yellowing gangrene virus)
[2] = test system: house dust mites (indoor mites)
organisms = test system: organisms
giant assassin bugs = test system: giant assassin bugs
[3] = test system: plant hoppers (rice pests)
stink bugs = test system: stink bugs
peach-potato aphids = test system: peach-potato aphids

In the case of `CC=O` [acetaldehyde], the “attractive (attractant) effect on fruit flies” value (fruit flies) is given as “attractant effect”.

In the case of hexadecene, the “repellent effect on green tea leafhoppers” value (green tea leafhoppers) is listed as “repellent effect”.

In the case of `CC(=O)O` [acetic acid], the “attractant effect on Asian tiger mosquitoes” value (Asian tiger mosquitoes) is listed as “attractant effect”.

In the case of `CC(=O)CC(C)=O` [acetylacetone], the “repellent effect on sirex woodwasps” value (sirex woodwasps) is given as “repellent effect”.

For `CCCCCCCCCCCCCC` [tetradodecane], the “repellent effect on malaria mosquitoes” value (malaria mosquitoes) is listed as “repellent effect”.

In the case of `C=CCCCCCCCCCCCC` [1-tetradecene], the “repellent effect on Mexican bean beetles” value (Mexican bean beetles) is given as “repellent effect” and the “repellent effect on flour beetles” value (flour beetles) is given as “repellent effect”.

In the case of `CCCCCCCCCCCCCCCC` [hexadecane], the “repellent effect on spider mites” value (spider mites) is given as “repellent effect”.

For `CCCCC(CC)CO` (stereo not shown) [2-ethyl-1-hexanol], the “attractant effect on whiteflies” value [1] is given as “attractant effect”.

In the case of `CCCCCCCCCC=O` [Example 1-decanal, 1-decanal], the “attractant effect on house dust mites (indoor mites)” value [2] is listed as “attractant effect”.

In the case of `C=Cc1ccccc1` [styrene], the “repellent or attractant effect on organisms” value (organisms) is given as “no repellent or attractant effect”.

In the case of `CC(=O)c1ccccc1` [acetophenone], the “repellent effect on giant assassin bugs” value (giant assassin bugs) is listed as “repellent effect”, the “attractive effect on plant hoppers (rice pests)” value [3] is listed as “attractive effect” and the “attractive effect on stink bugs” value (stink bugs) is listed as “attractive effect”. For the same compound, the “repellent effect on sirex woodwasps” value (sirex woodwasps) was “repellent effect”.

For `CCCCCC=O` [Example 1-hexanal, 1-hexanal], the “attractant effect on peach-potato aphids” value (peach-potato aphids) is listed as “attractant effect”.

For `CCCCCCCC=O` [Example 1-octanal, 1-octanal], the “attractant effect on house dust mites (indoor mites)” value [2] is given as “attractant effect”.

For `O=Cc1ccccc1` [benzaldehyde], the “attractive (attractant) effect on fruit flies” value (fruit flies) is listed as “attractive effect”.

For xylene, the “repellent effect on whiteflies” value [1] is listed as “repellent effect”.
